These results are taken from patent US10723741B1, “DNA polymerase IIIC inhibitors and use thereof” (Acurx Pharmaceuticals, LLC, priority 2018, dated 2020).

In general, MIC refers to the smallest concentration in the dilution series that meets the test's criterion for growth inhibition.

In brackets after ≈: the same amount, converted by molar mass.

The test concerns Enterococcus faecalis ATCC 29212. Briefly: Broth microdilution MIC, E. faecalis ATCC 29212. It counts as cell-based. Conditions: ATCC29212, broth microdilution, 37° C., 20 hours, read-out: MIC E. faecalis ATCC 29212. The method, boiled down: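 Broth microdilution in strain-specific test medium with ~5.0×10^5 cfu/ml inoculum, 1% DMSO and two-fold compound dilutions from 64 to 0.0625 μg/ml. Plates were held 20 hours at 37° C in ambient air. S. pneumoniae colonies were grown beforehand on blood agar in 5% CO2.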
In general terms: Dilution methods test growth across graded concentrations, often in twofold steps.
Take `Cl.O=c1[nH]c(NCc2ccc(Cl)c(Cl)c2)nc2cnn(CC3CNCCO3)c12` (stereo not drawn) [Compound 149, 5-((3,4-dichlorobenzyl)amino)-1-(morpholin-2-ylmethyl)-1H-pyrazolo[4,3-d]pyrimidin-7(6H)-one hydrochloride]: the MIC was 16 µg/mL.

On to `O=c1[nH]c(NCc2ccc(Cl)c(Cl)c2)nc2cnn(C3CCCC3)c12` [Compound 214, 1-cyclopentyl-5-((3,4-dichlorobenzyl)amino)-1H-pyrazolo[4,3-d]pyrimidin-7(6H)-one], for which the minimal inhibitory concentration (MIC) worked out at 2 µg/mL (≈ 5.29 µM).

Regarding `CN(C)CCOCCn1ncc2nc(NCc3ccc(Cl)c(Cl)c3)[nH]c(=O)c21.Cl` [Compound 211, 5-((3,4-dichlorobenzyl)amino)-1-(2-(2-(dimethylamino)ethoxy)ethyl)-1H-pyrazolo[4,3-d]pyrimidin-7(6H)-one hydrochloride], the MIC worked out at 16 µg/mL.

Consider `O=c1[nH]c(NCc2ccc(Cl)c(Cl)c2)nc2cnn(C3CC3)c12` [Compound 213, 1-Cyclopropyl-5-((3,4-dichlorobenzyl)amino)-1H-pyrazolo[4,3-d]pyrimidin-7(6H)-one], for which the MIC turned out to be 2 µg/mL (≈ 5.71 µM).

Take `COC(=O)CCCCn1ncc2nc(NCc3ccc(Cl)c(Cl)c3)[nH]c(=O)c21` [Compound 218, methyl 5-[5-[(3,4-dichlorophenyl)methylamino]-7-oxo-6H-pyrazolo[4,3-d]pyrimidin-1-yl]pentanoate]: the MIC was found to be 2 µg/mL (≈ 4.71 µM).

For the compound `O=C([C@@H](O)[C@H](O)CO)N1CCC(n2ncc3nc(NCc4ccc(Cl)c(Cl)c4)[nH]c(=O)c32)CC1` [Compound 276, 5-((3,4-dichlorobenzyl)amino)-1-(1-((2S,3R)-2,3,4-trihydroxybutanoyl)piperidin-4-yl)-1H-pyrazolo[4,3-d]pyrimidin-7(6H)-one], the MIC was found to be 64 µg/mL (≈ 125 µM).

Consider `O=C(O)CCC(=O)N1CCC(n2ncc3nc(NCc4ccc(Cl)c(Cl)c4)[nH]c(=O)c32)CC1` [Compound 273, 4-(4-(5-((3,4-dichlorobenzyl)amino)-7-oxo-6,7-dihydro-1H-pyrazolo[4,3-d]pyrimidin-1-yl)piperidin-1-yl)-4-oxobutanoic Acid], for which the MIC is 64 µg/mL (≈ 130 µM).

Consider `O=c1[nH]c(NCc2ccc(Cl)c(Cl)c2)nc2cnn(-c3ccccc3)c12` [Compound 212, 5-[(3,4-dichlorophenyl)methylamino]-1-phenyl-6H-pyrazolo[4,3-d]pyrimidin-7-one], for which the minimum inhibitory concentration (MIC) is more than 64 µg/mL.

For `Cn1ncc2nc(NCc3ccc(Cl)c(Cl)c3)[nH]c(=O)c21` [Compound 2, 5-((3,4-Dichlorobenzyl)amino)-1-methyl-1H-pyrazolo[4,3-d]pyrimidin-7(6H)-one], the minimal inhibitory concentration (MIC) amounted to 2 µg/mL (≈ 6.17 µM).

As to `Cl.Cl.O=c1[nH]c(NCc2ccc(Cl)c(Cl)c2)nc2cnn(CCOCCN3CCNCC3)c12` [Compound 167, 5-[(3,4-dichlorophenyl)methylamino]-1-[2-(2-piperazin-1-ylethoxy)ethyl]-6H-pyrazolo[4,3-d]pyrimidin-7-one], the MIC was 64 µg/mL.

With `COCCn1ncc2nc(NCc3ccc(Cl)c(Cl)c3)[nH]c(=O)c21` [Compound 126, 5-((3,4-dichlorobenzyl)amino)-1-(2-methoxyethyl)-1H-pyrazolo[4,3-d]pyrimidin-7(6H)-one], the MIC came out at 4 µg/mL (≈ 10.9 µM).

On to `Cc1nn(C)c2c(=O)[nH]c(NCc3ccc(Cl)c(Cl)c3)nc12` [Compound 44, 5-((3,4-dichlorobenzyl)amino)-1,3-dimethyl-1H-pyrazolo[4,3-d]pyrimidin-7(6H)-one], for which the MIC is 4 µg/mL (≈ 11.8 µM).

With `O=c1[nH]c(NCc2ccc(Cl)c(Cl)c2)nc2cn[nH]c12` [Compound 77, 5-((3,4-dichlorobenzyl)amino)-1H-pyrazolo[4,3-d]pyrimidin-7(6H)-one], the MIC amounted to 8 µg/mL (≈ 25.8 µM).

Regarding `C=CCn1ncc2nc(NCc3ccc(Cl)c(Cl)c3)[nH]c(=O)c21` [Compound 56, 1-allyl-5-((3,4-dichlorobenzyl)amino)-1H-pyrazolo[4,3-d]pyrimidin-7(6H)-one], the MIC was found to be 2 µg/mL (≈ 5.71 µM).

`Cl.O=c1[nH]c(NCc2ccc(Cl)c(Cl)c2)nc2cnn(C3CCN(C4CCOCC4)CC3)c12` [Compound 242, 5-((3,4-dichlorobenzyl)amino)-1-(1-(tetrahydro-2H-pyran-4-yl)piperidin-4-yl)-1H-pyrazolo[4,3-d]pyrimidin-7(6H)-one hydrochloride]: the MIC is 4 µg/mL.
